Several values for one entry are separate records, joined by “and”; a condition that tells them apart may be missing. Equal entries are not always repeated.
Assays:
T2 cells = experiment: 4-hr cytotoxicity of peptide-elicited CTL lines against peptide-loaded T2 cells
Procedure: CTL cytotoxicity assay. A semiautomated minicytotoxicity assay was used to determine specific lysis as described previously (Molldrem, 2000; Molldrem et al., 1996). Briefly, effector cells were prepared in doubling dilutions from 6×10^3 to 25×10^3 cells/well and were plated in 40 μl, 60-well Terasaki trays (Robbins Scientific, Sunnyvale, Calif., USA) with six replicates per dilution. Target cells (T2 cells, marrow-derived leukemic cells, or BM from a healthy donor) at a concentration of 2×10^6 cells/ml were stained with 10 μg/ml of Calcein-AM (Molecular Probes Inc.) for 60 min at 37° C. After washing three times in CM plus 10% AB, target cells were resuspended at 10^5 cells/ml, and 10^3 target cells in 10 μl medium were added to each well containing effector cells. Wells with target cells alone and medium alone were used for maximum (max) and minimum (min.) fluorescence emission, respectively. After 4 hr incubation at 37° C. in 5% CO2, 5 μl FluoroQuench (One Lambda Inc., Canoga Park, Calif., USA) was added to each well, and the trays were centrifuged for 1 min at 60 g before measurement of fluorescence using an automated CytoFluor II plate reader (PerSeptive Biosystems, Framingham, Mass., USA). The percentage of lysis was calculated as follows: % lysis={1−[(mean experimental mission−mean min.)/(mean max−mean min.)]}×100%.
Induction of Primary CTL responses to peptides. These peptides were next used to stimulate T cells specific for peptide-coated targets. PBMC from a normal healthy donor heterozygous for HL-A2.1 were stimulated with peptide-pulsed T2 cells. […] Briefly, T2 cells (which co-express the costimulatory molecule B7.1) were washed 3 times in serum-free RPMI culture media supplemented with penicillin/streptomycin and glutamine (CM) and incubated with peptide at 20 μg/mL for 2 hr in CM. The peptide loaded T2 cells were then irradiated with 7500 cGy, washed once, and suspended with freshly isolated PBMC at a 1:1 ratio in CM supplemented with 10% human serum (HS) (Sigma, St. Louis, Mo.). […]

HLA-A2.1 = HLA-A2.1 (Homo sapiens, UniProt P04439, D140Y/D185E/D98H/E176V/E277Q/G131W/G231S/I119V/I121R/I166T/I218V/L300P/L318F/N151K/N90K/P208A/P217A/Q86G/Q94H/R138H/R169H/T345S); experiment: HLA-A2.1 surface expression on peptide-coated T2 cells (indirect flow cytometry, BB7.2); type: binding; conditions: compared with T2 without peptide / control influenza peptide
Procedure: Cell lines and peptide binding. T2 cells (American Type Culture Collection, Rockville, Md., USA) were maintained in culture in CM plus 10% FBS (Atlanta Biologicals Inc., Norcross, Ga., USA). PR1 peptide was incubated at increasing concentrations for 18 hr at 37° C. with 100 μg/ml β2m (Sigma-Aldrich) with 10^6 T2 cells in 1 ml CM. Cells were washed twice with CM, stained with BB7.2 Ab, washed again, and then stained with FITC-labeled secondary Ab (Becton Dickinson Immunocytometry Systems, San Jose, Calif., USA).
T2 cells are a human lymphocyte line that lacks TAP1 and TAP2 genes and therefore cannot present endogenous MHC class I restricted antigens. If the peptide effectively bound HLA-A2.1, it stabilized the complex with (β2-microglobulin and increased HLA-A2.1 surface expression, which could be measured using flow cytometry. An HLA-A2.1 specific monoclonal antibody (BB7.2, ATCC, Rockville, Md.) followed by a FITC-labeled secondary antibody (CalTag Laboratories, Burlingame, Calif.) was used to measure surface expression of HLA-A2.1.
T2 cells are a human lymphocyte line that lacks TAP1 and 2 genes and cannot therefore present endogenous MHC class I restricted antigens. If the peptide effectively bound HLA-A2.1, it stabilized the complex with β2-microglobulin and increased HLA-A2.1 surface expression, which could be measured using flow cytometry. An HLA-A2.1 specific monoclonal antibody (BB7.2, ATCC, Rockville, Md.) followed by a FITC-labeled secondary antibody (CALTAG) was used to measure surface expression of HLA-A2.1. […] The labeled heterotrimer complex was separated from unincorporated β2-microglobulin by high-performance liquid

[1] = system: marrow cells from a normal healthy donor; experiment: Cytotoxicity of peptide-elicited CTL against normal donor marrow cells; type: cell-based, human
Excerpt: (§1) PR1 specific CTL preferentially lyse human myeloid leukemia cells. It was next determined whether the PR1-specific CTL line was capable of lysing allogeneic human myeloid leukemia cells from HLA-A2.1 positive individuals. As controls, two cell lines expressing low levels of Pr3 were used: HLA-A2.1 transfected K562 cells and U937 cell line which lack HLA-A2.1 and would therefore be incapable of presenting peptides in an HLA-A2.1-restricted manner. Cryopreserved bone marrow cells from patients P1-P4, and marrow cells from a healthy normal volunteer (D2, a bone marrow donor for an allogeneic bone marrow transplant performed on patient P3) were thawed and used as targets for the PR1-specific CTL line.
(§2) It was next determined whether the MY2 and MY4-specific CTL lines were capable of lysing allogeneic human myeloid leukemia cells from HLA-A2.1 positive individuals. The targets were BM cells from pre-transplant HLA-A2.1-positive AML patients. As controls, BM cells from HLA-A2.1-negative AML patients, BM from HLA-A2.1-positive healthy donors and two cell lines expressing low levels of MPO were used: HLA-A2.1 transfected K562 cells and the U937 cell line which lacks HLA-A2.1 and would therefore be incapable of presenting peptides in an HLA-A2.1-restricted manner.

[2] = system: human myeloid leukemia cells; experiment: Cytotoxicity of peptide-elicited CTL against HLA-A2.1-positive myeloid leukemia marrow cells; type: cell-based; conditions: for lysis of HLA-A2.1-positive AML marrow cells by peptide-specific CTL: MY2: E:T 5:1
Excerpt: as §1, §2

AML CFU-GM = experiment: CFU-GM colony inhibition by MY4-pulsed CTL, AML marrow; type: cell-based, human; conditions: patient P1 (M2-AML) and P2 (M4-AML), respectively; 13 day MY4-pulsed CTL
Excerpt: (§3) In contrast there was no inhibition of CFUGM from normal marrow, D1 and D2, the corresponding HLA identical marrow donors for P1 and P2.

[3] = system: CFU-GM from normal marrow; experiment: CFU-GM colony inhibition by MY4-pulsed CTL, normal marrow; type: cell-based, human; conditions: D1 and D2, HLA identical marrow donors
Excerpt: as §3

PR1-CTL = experiment: Annexin V apoptosis of PR1-CTL challenged with peptide-pulsed T2 cells; type: cell-based, human; conditions: for apoptosis (Annexin V) of high avidity PR1-CTL: T2 pulsed with 20 μM peptide, 16 to 18 hr
Excerpt: High PR1 concentration and proteinase 3-overexpressing CML cells induce apoptosis of high avidity PR1-specific CTL. […] All high avidity PR1-CTL exposed to high dose PR1 were dead after 36 to 48 hr of co-culture.

[4] = system: HMy2.CIR-A2 cells transfected with Pr3; experiment: PR1-specific CTL lysis of Pr3-transfected HMy2.CIR-A2 cells; type: cell-based, human; conditions: clone 1.4; E:T 25:1
Procedure: Expression of proteinase 3 following transfection into and HMy2.CIR and HMy2.CIR-A2 cells. […] The parental HMy2.CIR cell line, which has lost expression of HLA-A and -B, and the HLA-A2.1-transfected HMy2.CIR cells (named HMy2.CIR-A2), were both transfected with Pr3 as described below.
Ten million HMy2.CIR (ATCC, Rockville, Md.), or 10 million HMy2.CIR-A2 cells were each washed in phosphate buffered saline (PBS) and re-suspended in 0.8 mL of ice-cold PBS and put into an electroporation cuvette with 20 μg of circular plasmid DNA. The mixture was exposed to an electric pulse of 320 volts at 960 microF and incubated on ice for 10 min. Cells were then added to 10 mL of pre-warmed CM. The following day, the CM was replaced. On day 2, cells were grown under selection conditions using 200 μg/mL Zeocin. Following one week of selection, the cells were subcloned by limiting dilution under Zeocin selection, and 6 clones were isolated.
HMy.2.CIR-A2 cells transfected with Pr3 are susceptible to lysis by PR1 specific CTL. It was next determined whether the transfected HMy2.CIR-A2 cells could be lysed by PR1 specific CTL. The PR1 specific CTL were elicited in the manner previously described, and after 22 days in culture were combined at a 25:1 E:T ratio with HMy2.CIR-A2 transfected either with the Pr3-containing vector pRTZ.2, or the empty vector containing the reporter gene, CAT. […]

[5] = system: PBMC from HLA-A2.1+ healthy donors; experiment: In vitro elicitation of PR1-CTL from PBMC with peptide-pulsed APC, PR1/HLA-A2 tetramer staining; type: cell-based, human
Procedure: Peptide-specific CTLs were expanded in culture using methods described previously (Molldrem et al., 1996; Molldrem et al., 1997). Briefly, PBMCs from healthy donors or CML patients were stimulated in vitro with PR1, pp65, or flu peptides. T2 cells were washed three times in serum-free CM and incubated with peptide at the indicated peptide concentration for 2 hr in CM.
Ab's and flow cytometry. For routine surface-antigen staining, 10^6 PBMCs were incubated at 4° C. with Ab. After washing, cells were incubated with FITC-labeled CD8 (Caltag Laboratories Inc., Burlingame, Calif., USA) for 30 min on ice. Surface expression of TCR was determined with FITC-labeled TCR-αβ (PharMingen, San Diego, Calif., USA), and annexin V using FITC-labeled Ab (Caltag Laboratories). Proteinase 3 expression was determined with primary mouse Ab (Accurate Chemical & Scientific Corp., Westbury, N.Y., USA). Mouse monoclonal anti-HLA-A2.1 Ab BB7.2 and anti-HLA-ABC w6/32 were derived from culture supernatants of a hybridoma cell lines (American Tissue Culture Collection). Cells were washed and fixed in 2% paraformaldehyde and analyzed on a FACScan (Becton Dickinson Immunocytometry Systems), and data were analyzed using CELLQuest (Becton Dickinson Immunocytometry Systems) software. The minimum concentration of tetramer necessary to show distinctly different avidities was determined in titration experiments. Each tetramer reagent was titered individually and used at the optimal concentration. The tetramer concentration showing the maximal separation of fluorescence intensity of CTL populations was generally 10-20 μg/ml. Propidium iodide (PI) (Becton Dickinson Immunocytometry Systems) staining (1 μg/ml) was performed to exclude dead cells, according to the manufacturer's instructions. A “dump” channel was used with tetramer staining to eliminate monocytes and B lymphocytes with nonspecific binding to the HLA-A2 heavy chain by staining with PerCP-labeled CD14 and CD19 (both Becton Dickinson Immunocytometry Systems).
PR1-specific CTL with high and low TCR avidity can be elicited from healthy donors. To determine whether high and low avidity PR1-CTL are present in healthy donors, a modified tetramer staining technique (Savage et al., 1999) using limiting tetramer concentration to visualize high and low fluorescence intensity tetramer+ cells, which correlates with high and low TCR avidity was utilized. Sufficient PR1-CTL was elicited by stimulating PBMC with increasing peptide concentrations for 28 days. PBMC from an HLA-A2.1+ healthy donor stimulated weekly for 28 days with 0.2 μM PR1 elicited 1.3% high intensity PR1/HLA-A2 tetramer-staining CTL with a median channel of fluorescence (MCF) of 293 (high avidity PR1-CTL), while stimulation with 20 μM PR1 produced 3.1% low avidity (MCF=93) PR1-specific CTL (FIG. 11A). […] Cultures stimulated with 2 μM PR1 produced fewer PR1-specific CTL with mixed TCR avidities, while stimulation with ≦0.02 μM PR1 induced <0.1% PR1-CTL. […] To further verify that tetramer staining intensity correlates with TCR avidity, the kinetics of tetramer staining decay was determined using previously described techniques (Savage et al., 1999).

[6] = system: HLA-A2+ patients with CML, AML or MDS; experiment: Phase I/II PR1 peptide vaccine study in myeloid leukemia patients; type: in vivo, human
Procedure: PR1 peptide is injected subcutaneously in incomplete Freund's adjuvant every 3 weeks for 3 injections to induce a PR1 specific host response against the myeloid leukemia. Both in Phase I and in Phase II, patients will also be evaluated for signs of immune reactivity. […] The amount of Proteinase 3 expression in the leukemia cells is studied by cytoplasmic flow cytometry analysis. Any clinical responses (defined by standard criteria as hematological and/or cytogenetic responses) will be correlated with the in vitro testing. Vaccination at 3 dose levels of peptide with a fixed amount of IFA will be conducted, and stopping criteria will be guided by established toxicity criteria.
HLA-A2^+ patients with CML (interferon-resistant or relapsed after BMT), AML (smoldering relapse or ≧2nd CR) or MDS (RAEB or RAEBt) with no detectable antibodies to proteinase 3 (no detectable cANCA) were eligible. Patients that relapsed after BMT or those ineligible for BMT were also eligible for study. […]
Secondarily, clinical responses were assessed by standard criteria with bone marrow biopsy, cytogenetic studies (standard chromosome banding) and molecular studies (PCR for bcr-abl or other known abnormalities such as t(15;17), inv16, etc.) 3 weeks after the last vaccination. Patients were seen and evaluated in clinic every 3 weeks during the study period. […]

[7] = T2 loaded with 1.0 μg/mL of same peptide, varying E:T

Substance: RLFPDFFTRV [PR2]
- specific lysis of peptide-loaded T2 cells by CTL line generated against the peptide (T2 cells; [7]): did not demonstrate any significant cytotoxicity
- surface HLA-A2.1 expression on peptide-pulsed T2 cells (in words) (HLA-A2.1): increased surface HLA-A2.1 expression

Substance: KLLLALAGL [MY2]
- specific lysis of peptide-loaded T2 cells by CTL line generated against the peptide (T2 cells; T2 loaded with 2.0 μg/mL of same peptide): high specific lysis
- lysis of HLA-A2.1-positive normal healthy donor marrow cells by MY2-specific CTL ([1]; E:T 20:1): 43%
- lysis of HLA-A2.1-positive AML marrow cells by peptide-specific CTL [2]: readily lysed

Substance: RLFEQVMRI [MY4]
- inhibition of CFU-GM (AML CFU-GM): 63% and 34%
- specific lysis of HLA-A2+ normal BMC by peptide-specific CTL [1]: not normal cells
- lysis of HLA-A2.1-positive AML marrow cells by peptide-specific CTL [2]: killed AML cells
- inhibition of CFU-GM from normal marrow [3]: no inhibition

Substance: VLQELNVTV [PR1]
- specific lysis of peptide-loaded T2 cells by CTL line generated against the peptide (T2 cells; [7]): high specific lysis
- apoptosis (Annexin V) of high avidity PR1-CTL (PR1-CTL): underwent apoptosis
- apoptosis (Annexin V) of low avidity PR1-CTL (PR1-CTL; high or low concentrations of PR1): did not undergo apoptosis
- lysis of normal donor marrow cells by PR1-specific CTL ([1]; donor D2): < 20%
- specific lysis of CML blast crisis marrow cells by PR1-specific CTL ([2]; CML-BC, E:T 25:1): 73%
- lysis of CML #3 BM cells by patient CTL elicited with 0.2 μM PR1 ([2]; CTL from patients CML #1 and CML #2, respectively, E:T 20:1): 24%±5% and 33%±6%
- specific lysis of CML marrow cells by PR1-specific CTL ([2]; P1, CML in chronic phase, E:T 6:1): 53%
- specific lysis of Pr3-transfected cells by PR1-specific CTL [4]: 36%
- surface HLA-A2.1 expression on peptide-pulsed T2 cells (in words) (HLA-A2.1): increased surface HLA-A2.1 expression
- % of bulk culture CTL double-positive (CD8, PR1-tetramer) ([5]; 32 day-old PR1-stimulated CTL culture): 4.3%
- % PR1/HLA-A2 tetramer-staining CTL ([5]; PBMC stimulated weekly 28 days with 0.2 μM PR1 (high avidity)): 1.3%
- % of CTL line specific for PR1 (PR1-tetramer/CD8) ([5]; day 17 CTL line elicited against PR1): 2.4%
- % PR1/HLA-A2 tetramer-staining CTL ([5]; stimulated with 20 μM PR1 (low avidity)): 3.1%
- % PR1-CTL induced ([5]; stimulation with ≦0.02 μM PR1): < 0.1%
- patients with complete remission ([6]; 9 patients (1 AML and 1 CML)): 2 patients
- patients in whom PR1-specific CTL immunity was elicited (tetramer staining) ([6]; 9 patients, 0.25, 0.5 or 1.0 mg every 3 weeks x3): 6 of 9

Substance: KLNDVLLIQL [PR7V]
- surface HLA-A2.1 expression on peptide-pulsed T2 cells (in words) (HLA-A2.1): strong peptide binding

Substance: KLNDILLIQL [PR7I]
- surface HLA-A2.1 expression on peptide-pulsed T2 cells (in words) (HLA-A2.1): strong peptide binding

Substance: Influenza nucleoprotein: control influenza peptide, Influenza B nucleoprotein (aa 85-94), known high binding affinity to HLA-A2.1 (KLGEFYNQMM) [reference compound]
- apoptosis (Annexin V) of high avidity PR1-CTL (PR1-CTL): no apoptosis was observed

Source: patent US20060045881A1, “Anti-cancer vaccines” (Board of Regents, The University of Texas System, priority 2004, published 2006)
